# According to ChEMBL document CHEMBL4304757, “Synthetic heterocyclic candidates as promising α-glucosidase inhibitors: An overview” (Eur J Med Chem, 2019):
# How the values were obtained:
# [1] = Inhibition of yeast alpha-glucosidase using p-nitrophenyl-alpha-d-glucopyranoside as substrate preincubated for 10 mins followed by substrate addition measured after 20 mins; set-up: species or system Saccharomyces cerevisiae
# [2] = Inhibition of yeast alpha-glucosidase using p-nitrophenyl-alpha-d-glucopyranoside as substrate preincubated for 5 mins followed by substrate addition measured after 5 mins; set-up: species or system Saccharomyces cerevisiae
# Alpha glucosidase [3] = target: T1, Alpha glucosidase (Homo sapiens, UniProt O43451+P10253+P14410+Q2M2H8); assay: Inhibition of alpha-glucosidase (unknown origin) using p-nitro phenyl glucopyranoside as substrate preincubated for 10 mins followed by substrate addition measured after 30 mins; type: protein assay
# [4] = Inhibition of yeast alpha-glucosidase using p-nitrophenyl-alpha-d-glucopyranoside as substrate preincubated for 15 mins followed by substrate addition measured after 20 mins; set-up: species or system Saccharomyces cerevisiae
# Alpha glucosidase [5] = target: T1, Alpha glucosidase; assay: Inhibition of alpha-glucosidase (unknown origin) using p-nitrophenyl-alpha-d-glucopyranoside as substrate preincubated for 5 mins followed by substrate addition measured after 30 mins; type: protein assay
# MDA-MB-231 = assay: Cytotoxicity against human MDA-MB-231 cells assessed as reduction in cell viability at 100 uM relative to control; type: functional, cell-based; settings: for IC50: Homo sapiens, MDA-MB-231
# Alpha glucosidase [6] = target: T1, Alpha glucosidase; assay: Inhibition of alpha-glucosidase (unknown origin) using p-nitrophenyl-alpha-d-glucopyranoside as substrate preincubated for 10 mins followed by substrate addition measured after 30 mins; type: protein assay
compound,measurement,setting,value
N#CC1=C(N)Oc2c(c(=O)[nH]c3c2ccc2ccccc23)C1c1ccc([N+](=O)[O-])cc1 (centres undefined),IC50,[1],10 to 172 µM
COc1ccc(-c2nnc(-c3cc4ccc([N+](=O)[O-])cc4o3)o2)cc1O,IC50,[2],12 to 162 µM
N#CC1=C(N)Oc2c(c(=O)[nH]c3c2ccc2ccccc23)C1c1cccc(F)c1 (centres undefined),IC50,[1],10 to 172 µM
O=C(N/N=C/c1ccc(O)cc1)c1nc(-c2cc3ccccc3oc2=O)cs1,IC50,Alpha glucosidase [3],6.2 to 81 µM
COc1cc(-c2nc3ccc(N4CCN(C)CC4)cc3[nH]2)ccc1O,IC50,[4],2.2 to 21 µM
CN(C)c1ccc(-c2nc3ccc(N4CCOCC4)cc3[nH]2)cc1,IC50,[4],3.4 to 20 µM
COc1ccc(-c2nnc(-c3cc4ccc([N+](=O)[O-])cc4o3)o2)c(O)c1,IC50,[2],12 to 162 µM
N#CC1=C(N)Oc2c(c(=O)[nH]c3c2ccc2ccccc23)C1c1ccc(O)cc1 (centres undefined),IC50,[1],10 to 172 µM
N#CC1=C(N)Oc2c(c(=O)[nH]c3c2ccc2ccccc23)C1c1ccccc1Br (centres undefined),IC50,[1],10 to 172 µM
N#CC1=C(N)Oc2c(c(=O)[nH]c3c2ccc2ccccc23)C1c1ccc(Cl)cc1 (centres undefined),IC50,[1],10 µM
O=C(N/N=C/c1cccc(Cl)c1)c1nc(-c2cc3ccccc3oc2=O)cs1,IC50,Alpha glucosidase [3],6.2 to 81 µM
O=[N+]([O-])c1ccc2cc(-c3nnc(-c4ccc(O)c(O)c4)o3)oc2c1,IC50,[2],12 to 162 µM
N#CC1=C(N)Oc2c(c(=O)[nH]c3c2ccc2ccccc23)C1c1ccc(Br)cc1 (centres undefined),IC50,[1],10 to 172 µM
O=C(N/N=C/c1cc(Cl)ccc1O)c1nc(-c2cc3ccccc3oc2=O)cs1,IC50,Alpha glucosidase [3],6.2 to 81 µM
COc1ccc(N2C(=O)/C(=C/c3ccc(F)cc3)S/C2=N\NC(=O)c2cc3ccccc3oc2=O)cc1,IC50,Alpha glucosidase [5],0.09 to 1.6 µM
same,Activity,MDA-MB-231,>=76%
O=[N+]([O-])c1ccc2cc(-c3nnc(-c4ccc(Cl)cc4)o3)oc2c1,IC50,[2],12 to 162 µM
N#CC1=C(N)Oc2c(c(=O)[nH]c3c2ccc2ccccc23)C1c1ccc(F)cc1 (centres undefined),IC50,[1],15 µM
NNC(=O)Cn1c(Cc2ccc(Cl)cc2Cl)nc2ccc([N+](=O)[O-])cc21,IC50,[4],10 µM
O=C(N/N=C/c1ccc(O)c(O)c1)c1nc(-c2cc3ccccc3oc2=O)cs1,IC50,Alpha glucosidase [3],6.2 to 81 µM
Cc1cccc(N2C(=O)/C(=C/c3ccc(F)cc3)S/C2=N\NC(=O)c2cc3ccccc3oc2=O)c1,IC50,Alpha glucosidase [5],0.09 to 1.6 µM
same,Activity,MDA-MB-231,>=76%
O=C(N/N=C1\S/C(=C\c2ccc(F)cc2)C(=O)N1c1cccc(Cl)c1)c1cc2ccccc2oc1=O,IC50,Alpha glucosidase [5],> 100 µM
same,Activity,MDA-MB-231,>=76%
O=C(N/N=C/c1ccc(Cl)cc1)c1nc(-c2cc3ccccc3oc2=O)cs1,IC50,Alpha glucosidase [3],6.2 to 81 µM
N#CC1=C(N)Oc2c(c(=O)[nH]c3c2ccc2ccccc23)C1c1ccccc1 (centres undefined),IC50,[1],10 to 172 µM
CC(C)(C)c1cc(/C=N/NC(=O)c2nc(-c3cc4ccccc4oc3=O)cs2)c(O)c(C(C)(C)C)c1,IC50,Alpha glucosidase [3],6.2 to 81 µM
O=C(N/N=C/c1ccccc1O)c1nc(-c2cc3ccccc3oc2=O)cs1,IC50,Alpha glucosidase [3],6.2 to 81 µM
Cc1ccsc1C1C(C#N)=C(N)Oc2c1c(=O)[nH]c1c2ccc2ccccc21 (centres undefined),IC50,[1],10 to 172 µM
O=[N+]([O-])c1ccc2cc(-c3nnc(-c4cc(O)ccc4O)o3)oc2c1,IC50,[2],12 to 162 µM
Cc1ccccc1N1C(=O)/C(=C/c2ccc(F)cc2)S/C1=N\NC(=O)c1cc2ccccc2oc1=O,IC50,Alpha glucosidase [5],0.09 to 1.6 µM
same,Activity,MDA-MB-231,>=76%
O=[N+]([O-])c1ccc2cc(-c3nnc(-c4cc(O)cc(O)c4)o3)oc2c1,IC50,[2],12 to 162 µM
O=[N+]([O-])c1ccc2cc(-c3nnc(-c4ccccc4O)o3)oc2c1,IC50,[2],12 to 162 µM
COc1cc(C2C(C#N)=C(N)Oc3c2c(=O)[nH]c2c3ccc3ccccc32)ccc1O (centres undefined),IC50,[1],10 to 172 µM
COc1ccc(O)c(-c2nnc(-c3cc4ccc([N+](=O)[O-])cc4o3)o2)c1,IC50,[2],12 to 162 µM
COc1ccc(/C=N/NC(=O)c2nc(-c3cc4ccccc4oc3=O)cs2)cc1,IC50,Alpha glucosidase [3],6.2 to 81 µM
O=C(N/N=C/c1cccc(F)c1)c1nc(-c2cc3ccccc3oc2=O)cs1,IC50,Alpha glucosidase [3],6.2 to 81 µM
O=[N+]([O-])c1ccc2cc(-c3nnc(-c4cccc(O)c4)o3)oc2c1,IC50,[2],12 to 162 µM
CN1CCN(c2ccc3nc(-c4ccc(N(C)C)cc4)[nH]c3c2)CC1,IC50,[4],2.2 to 21 µM
Cc1cccc(N2C(=O)/C(=C/c3ccc(F)cc3)S/C2=N\NC(=O)c2cc3ccccc3oc2=O)c1C,IC50,Alpha glucosidase [5],> 100 µM
same,Activity,MDA-MB-231,>=76%
Cc1ccc(C)c(N2C(=O)/C(=C/c3ccc(F)cc3)S/C2=N\NC(=O)c2cc3ccccc3oc2=O)c1,IC50,Alpha glucosidase [5],> 100 µM
same,Activity,MDA-MB-231,>=76%
O=[N+]([O-])c1ccc2cc(-c3nnc(-c4ccccc4F)o3)oc2c1,IC50,[2],12 to 162 µM
CC[C@]1(O)C[C@H]2CN(CCc3c([nH]c4ccccc34)[C@@](C(=O)OC)(c3cc4c(cc3OC)N(C=O)[C@H]3[C@@](O)(C(=O)OC)[C@H](OC(C)=O)[C@]5(CC)C=CCN6CC[C@]43[C@@H]65)C2)C1 [VINCRISTINE],Activity,MDA-MB-231,74.5%
CN1CCN(c2ccc3nc(-c4ccc(Cl)cc4)[nH]c3c2)CC1,IC50,[4],2.2 to 21 µM
O=[N+]([O-])c1ccc2cc(-c3nnc(-c4ccc(F)cc4)o3)oc2c1,IC50,[2],12 to 162 µM
O=C(N/N=C/c1ccccc1F)c1nc(-c2cc3ccccc3oc2=O)cs1,IC50,Alpha glucosidase [3],6.2 to 81 µM
COc1ccccc1N1C(=O)/C(=C/c2ccc(F)cc2)S/C1=N\NC(=O)c1cc2ccccc2oc1=O,IC50,Alpha glucosidase [5],0.09 µM
same,Activity,MDA-MB-231,72.8%
CN1CCN(c2ccc3nc(-c4ccc(F)c(Br)c4)[nH]c3c2)CC1,IC50,[4],2.2 to 21 µM
N#CC1=C(N)Oc2c(c(=O)[nH]c3c2ccc2ccccc23)C1c1cccc([N+](=O)[O-])c1 (centres undefined),IC50,[1],10 to 172 µM
N#CC1=C(N)Oc2c(c(=O)[nH]c3c2ccc2ccccc23)C1c1ccncc1 (centres undefined),IC50,[1],10 to 172 µM
COc1ccccc1/C=N/NC(=O)c1nc(-c2cc3ccccc3oc2=O)cs1,IC50,Alpha glucosidase [3],6.2 to 81 µM
O=C(N/N=C1\S/C(=C\c2ccc(F)cc2)C(=O)N1c1ccc(Cl)cc1)c1cc2ccccc2oc1=O,IC50,Alpha glucosidase [5],0.09 to 1.6 µM
same,Activity,MDA-MB-231,>=76%
O=C(N/N=C/c1cccc(Br)c1)c1nc(-c2cc3ccccc3oc2=O)cs1,IC50,Alpha glucosidase [3],6.2 to 81 µM
O=C(N/N=C/c1ccc(O)c(F)c1)c1nc(-c2cc3ccccc3oc2=O)cs1,IC50,Alpha glucosidase [3],6.2 to 81 µM
COc1cccc(N2C(=O)/C(=C/c3ccc(F)cc3)S/C2=N\NC(=O)c2cc3ccccc3oc2=O)c1,IC50,Alpha glucosidase [5],0.09 to 1.6 µM
same,Activity,MDA-MB-231,>=76%
Cc1cccc(C)c1N1C(=O)/C(=C/c2ccc(F)cc2)S/C1=N\NC(=O)c1cc2ccccc2oc1=O,IC50,Alpha glucosidase [5],0.09 to 1.6 µM
same,Activity,MDA-MB-231,>=76%
CN1CCN(c2ccc3nc(-c4ccccn4)[nH]c3c2)CC1,IC50,[4],2.2 to 21 µM
COc1ccc(C2C(C#N)=C(N)Oc3c2c(=O)[nH]c2c3ccc3ccccc32)cc1 (centres undefined),IC50,[1],10 to 172 µM
O=[N+]([O-])c1ccc2cc(-c3nnc(-c4cccc(F)c4)o3)oc2c1,IC50,[2],12 to 162 µM
Cc1cc(C)cc(N2C(=O)/C(=C/c3ccc(F)cc3)S/C2=N\NC(=O)c2cc3ccccc3oc2=O)c1,IC50,Alpha glucosidase [5],0.09 to 1.6 µM
same,IC50,MDA-MB-231,0.09 to 1.6 µM
O=[N+]([O-])c1ccc2cc(-c3nnc(-c4cccc(O)c4O)o3)oc2c1,IC50,[2],12 µM
COc1ccc(/C=N/NC(=O)c2nc(-c3cc4ccccc4oc3=O)cs2)c(O)c1,IC50,Alpha glucosidase [3],6.2 to 81 µM
Cc1ccc(N2C(=O)/C(=C/c3ccc(F)cc3)S/C2=N\NC(=O)c2cc3ccccc3oc2=O)cc1C,IC50,Alpha glucosidase [5],0.09 to 1.6 µM
same,IC50,MDA-MB-231,0.09 to 1.6 µM
O=[N+]([O-])c1ccc2cc(-c3nnc(-c4cccc(Cl)c4)o3)oc2c1,IC50,[2],12 to 162 µM
COc1ccc(C2C(C#N)=C(N)Oc3c2c(=O)[nH]c2c3ccc3ccccc32)cc1OC (centres undefined),IC50,[1],10 to 172 µM
O=C(N/N=C/c1cc(O)ccc1O)c1nc(-c2cc3ccccc3oc2=O)cs1,IC50,Alpha glucosidase [3],6.2 to 81 µM
Cc1ccc(C2C(C#N)=C(N)Oc3c2c(=O)[nH]c2c3ccc3ccccc32)cc1 (centres undefined),IC50,[1],10 to 172 µM
N#CC1=C(N)Oc2c(c(=O)[nH]c3c2ccc2ccccc23)C1c1cccc(O)c1 (centres undefined),IC50,[1],10 to 172 µM
Cc1ccc(N2C(=O)/C(=C/c3ccc(F)cc3)S/C2=N\NC(=O)c2cc3ccccc3oc2=O)c(C)c1,IC50,Alpha glucosidase [5],0.09 to 1.6 µM
same,Activity,MDA-MB-231,>=76%
O=[N+]([O-])c1ccc2cc(-c3nnc(-c4ccc(O)cc4)o3)oc2c1,IC50,[2],12 to 162 µM
O=[N+]([O-])c1ccc2cc(-c3nnc(-c4ccccc4Cl)o3)oc2c1,IC50,[2],12 to 162 µM
O=[N+]([O-])c1ccc2cc(-c3nnc(-c4ccc(O)cc4O)o3)oc2c1,IC50,[2],12 to 162 µM
Cc1ccc(N2C(=O)/C(=C/c3ccc(F)cc3)S/C2=N\NC(=O)c2cc3ccccc3oc2=O)cc1,IC50,Alpha glucosidase [5],0.09 to 1.6 µM
same,Activity,MDA-MB-231,>=76%
O=C(N/N=C/c1ccc(C(F)(F)F)cc1)c1nc(-c2cc3ccccc3oc2=O)cs1,IC50,Alpha glucosidase [3],6.2 to 81 µM
CN(C)c1ccc(C2C(C#N)=C(N)Oc3c2c(=O)[nH]c2c3ccc3ccccc32)cc1 (centres undefined),IC50,[1],10 to 172 µM
O=C(N/N=C1\S/C(=C\c2ccc(F)cc2)C(=O)N1c1ccccc1Cl)c1cc2ccccc2oc1=O,IC50,Alpha glucosidase [5],0.09 to 1.6 µM
same,IC50,MDA-MB-231,0.09 to 1.6 µM
O=C(NNC(=S)Nc1ccc(C(F)(F)F)cc1)c1ccc(-c2nnc(-c3ccccc3Cl)o2)cc1,IC50,Alpha glucosidase [6],0.6 µM
